The text below walks through data of US20040009988A1 (priority 2000, published 2004).

Sequence of human MTP (P55157 19-894): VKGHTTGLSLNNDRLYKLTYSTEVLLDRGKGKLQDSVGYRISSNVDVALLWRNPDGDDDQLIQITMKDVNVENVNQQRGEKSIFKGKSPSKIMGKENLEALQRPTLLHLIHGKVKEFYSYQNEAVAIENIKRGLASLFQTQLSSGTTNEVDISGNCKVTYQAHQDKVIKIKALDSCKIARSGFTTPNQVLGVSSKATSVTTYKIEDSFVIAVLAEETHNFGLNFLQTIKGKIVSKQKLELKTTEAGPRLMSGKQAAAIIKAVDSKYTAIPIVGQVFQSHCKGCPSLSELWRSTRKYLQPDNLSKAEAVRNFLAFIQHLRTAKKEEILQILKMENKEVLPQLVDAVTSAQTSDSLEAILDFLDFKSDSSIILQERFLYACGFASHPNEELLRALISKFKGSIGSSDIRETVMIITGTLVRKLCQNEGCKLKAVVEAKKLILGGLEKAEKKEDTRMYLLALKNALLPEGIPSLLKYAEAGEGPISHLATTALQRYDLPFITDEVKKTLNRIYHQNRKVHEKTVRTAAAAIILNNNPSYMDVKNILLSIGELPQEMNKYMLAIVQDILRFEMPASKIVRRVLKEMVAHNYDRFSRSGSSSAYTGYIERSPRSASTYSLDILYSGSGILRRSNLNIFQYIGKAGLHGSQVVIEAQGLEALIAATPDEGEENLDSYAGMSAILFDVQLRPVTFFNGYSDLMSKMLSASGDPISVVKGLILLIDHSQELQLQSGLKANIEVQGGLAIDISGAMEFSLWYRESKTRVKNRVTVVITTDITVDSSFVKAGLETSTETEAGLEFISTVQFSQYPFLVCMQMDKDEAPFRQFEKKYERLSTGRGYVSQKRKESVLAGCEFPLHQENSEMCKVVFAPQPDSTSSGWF
Sequence of human MTP (P07237 18-508 partner): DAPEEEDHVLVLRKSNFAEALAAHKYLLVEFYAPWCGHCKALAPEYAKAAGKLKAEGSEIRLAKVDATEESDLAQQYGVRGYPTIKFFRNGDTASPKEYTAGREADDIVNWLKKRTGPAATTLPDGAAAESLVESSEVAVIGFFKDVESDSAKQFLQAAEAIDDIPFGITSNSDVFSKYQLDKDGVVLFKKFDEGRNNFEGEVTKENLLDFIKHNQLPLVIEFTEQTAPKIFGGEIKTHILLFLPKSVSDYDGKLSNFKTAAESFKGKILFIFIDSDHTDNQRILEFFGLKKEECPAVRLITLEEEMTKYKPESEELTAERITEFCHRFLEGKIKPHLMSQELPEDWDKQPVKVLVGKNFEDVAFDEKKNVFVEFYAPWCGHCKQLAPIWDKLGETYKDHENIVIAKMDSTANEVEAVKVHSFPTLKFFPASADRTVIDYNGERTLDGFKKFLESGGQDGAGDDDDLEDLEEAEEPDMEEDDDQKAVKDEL

The first data set addresses human MTP (Homo sapiens, UniProt P55157). Kind of data set: human MTP activity assay (SPA, 3H-triolein transfer between liposomes). Particulars: MTP-mediated 3H-triolein transfer from donor to acceptor liposomes, 25 min at 37° C., streptavidin-SPA beads. It counts as biochemical. As for the experimental part:
The ability of the compounds of this invention to inhibit human MTP activity is measured by an in vitro assay where MTP tranfers 3H-triolein between phosphatidylcholine liposomes. The specificity of the compounds of the invention is established by comparing the effects on apoB-100 and apoprotein A-1 production. A specificity of at least 100 is preferred.
The human MTP activity assay was established using SPA technology. Donor liposomes were prepared with 3H-triolein and phosphatidylcholine, while acceptor liposomes contained biotinylated phosphatidylethanolamine and phosphatidylcholine. The MTP-mediated 3H-triolein transfer onto acceptor liposomes was allowed by a 25 min incubation at 37° C., and quantified by the addition of streptavidin-SPA beads.
The compound `CC(C)c1ccc(-c2c(C(=O)Nc3ccc(N4CCN(Cc5cccc(C#N)c5)CC4)nc3)cccc2C(C)C)cc1` [Example 15, 4′,6-Diisopropyl-biphenyl-2-carboxylic acid [2-(4-(3-cyano-benzyl)-piperazin-1-yl)-pyridin-5-yl]-amide] displayed a half-maximal inhibitory concentration (IC50) of 0.16 nM.
The compound `C=CCN1CCN(c2ccc(NC(=O)c3cccc(C(C)C)c3-c3ccc(C(C)C)cc3)cn2)CC1` [Example 25] showed an IC50 below 0.1 nM.
`Cc1cccc(C(=O)Nc2ccc(N3CCN(Cc4ccc[nH]4)CC3)nc2)c1-c1ccc(C(C)C)cc1` [Example 5, 4′-Isopropyl-6-methyl-biphenyl-2-carboxylic acid [2-(4-(1H-pyrrol-2-ylmethyl)piperazin-1-yl)-pyridin-5-yl]-amide] yielded an IC50 of 0.1 nM.
In turn, `Cc1cccc(C(=O)Nc2ccc(N3CCN(CC(N)=O)CC3)nc2)c1-c1ccc(C(C)C)cc1` [Example 1, 4′-Isopropyl-6-methyl-biphenyl-2-carboxylic acid [2-(4-carbamoylmethyl-piperazin-1-yl)-pyridin-5-yl]-amide] showed a 50% inhibitory concentration (IC50) of 0.3 nM.

Tested on in the next data set: not given
Assay: not given
Settings: not given
For the compound `C=C(C)N1CCN(c2ccc(NC(=O)c3cccc(C(C)C)c3-c3ccc(C(C)C)cc3)cn2)CC1` [Example 25, 4′,6-Diisopropyl-biphenyl-2-carboxylic acid-[2-(4-(propen-2-yl)-piperazin-1-yl)-pyridin-5-yl]-amide], the melting point came out at 124 °C.
As for `Cc1ccc(C(=O)Nc2ccc(N3CCN(Cc4cccc(C#N)c4)CC3)nc2)c(-c2ccc(C(C)C)cc2)c1` [Example 21, 4′-Isopropyl-5-methyl-biphenyl-2-carboxylic acid [2-(4-(3-cyano-benzyl)-piperazin-1-yl)-pyridin-5-yl]-amide], the melting point lay in the range of 161 to 163 °C.
As for `Cc1cccc(C(=O)Nc2ccc(N3CCN(Cc4ccc[nH]4)CC3)nc2)c1-c1ccc(C(F)(F)F)cc1` [Example 6, 6-Methyl4′-trifluoromethyl-biphenyl-2-carboxylic acid [2-(4-(1H-pyrrol-2-ylmethyl)piperazin-1-yl)-pyridin-5-yl]-amide], the melting point lay in the range of 142 to 144 °C.
For the compound `CC(C)c1ccc(-c2c(C(=O)Nc3ccc(N4CCN(Cc5cccc(C#N)c5)CC4)nc3)cccc2C(C)C)cc1` [Example 15, 4′,6-Diisopropyl-biphenyl-2-carboxylic acid [2-(4-(3-cyano-benzyl)-piperazin-1-yl)-pyridin-5-yl]-amide], the melting point was 151 °C.
With `Cc1ccc(C(=O)Nc2ccc(N3CCN(Cc4cccc(C#N)c4)CC3)nc2)c(-c2ccc(C(F)(F)F)cc2)c1` [Example 22, 5-Methyl-4′-trifluoromethyl-biphenyl-2-carboxylic acid [2-(4-(3-cyano-benzyl)-piperazin-1-yl)-pyridin-5-yl]-amide], the melting point fell in the range of 158 to 160 °C.
The same measure, in the same setting: next, `Cc1noc(-c2cccc(CN3CCN(c4ccc(NC(=O)c5ccccc5-c5ccc(C(F)(F)F)cc5)cn4)CC3)c2)n1` [Example 9, 4′-Trifluoromethyl-biphenyl-2-carboxylic acid [2-(4-(3-(3-methyl-[1,2,4]oxadiazol-5-yl)-benzyl)-piperazin-1-yl)-pyridin-5-yl]-amide]: 192 to 194 °C; `COc1cccc(C(=O)Nc2ccc(N3CCN(Cc4cccc(C#N)c4)CC3)nc2)c1-c1ccc(C(C)C)cc1` [Example 18, 4′-Isopropyl-6-methoxy-biphenyl-2-carboxylic acid [2-(4-(3-cyano-benzyl)-piperazin-1-yl)-pyridin-5-yl]-amide]: 194 to 196 °C.
`Cc1noc(-c2cccc(CN3CCN(c4ccc(NC(=O)c5cccc(C(C)C)c5-c5ccc(C(C)C)cc5)cn4)CC3)c2)n1` [Example 13, 4′,6-Diisopropyl-biphenyl-2-carboxylic acid [2-(4-(3-(3-methyl-[1,2,4]oxadiazol-5-yl)-benzyl)-piperazin-1-yl)-pyridin-5-yl]-amide] gave a melting point of 125 °C.
Still for that read-out and setting: to `COc1cccc(C(=O)Nc2ccc(N3CCN(CC(N)=O)CC3)nc2)c1-c1ccc(C(C)C)cc1` [Example 3, 4′-Isopropyl-6-methoxy-biphenyl-2-carboxylic acid [2-(4-carbamoylmethyl-piperazin-1-yl)-pyridin-5-yl]-amide] belongs 210 to 212 °C; to `O=C(Nc1ccc(N2CCN(Cc3ccco3)CC2)nc1)c1ccccc1-c1ccc(C(F)(F)F)cc1` [Example 14, 4′-Trifluoromethyl-biphenyl-2-carboxylic acid [2-(4-(furan-2-ylmethyl)piperazin-1-yl)-pyridin-5-yl]-amide], 149 °C.
Still for that read-out and setting: next, `CC(C)c1ccc(-c2c(C(=O)Nc3ccc(N4CCN(C)CC4)nc3)cccc2C(C)C)cc1` [Example 24, 4′,6-Diisopropyl-biphenyl-2-carboxylic acid-[2-(4-methyl-piperazin-1-yl)-pyridin-5-yl]-amide]: 152 to 154 °C.
In turn, `CCCN1CCN(c2ccc(NC(=O)c3cccc(C(C)C)c3-c3ccc(C(C)C)cc3)cn2)CC1` [Example 23, 4′,6-Diisopropyl-biphenyl-2-carboxylic acid-[2-(4-propyl-piperazin-1-yl)-pyridin-5-yl]-amide] came in with a melting point of 126 to 128 °C.
Same read-out and setting: to `COc1cccc(C(=O)Nc2ccc(N3CCN(Cc4cccc(-c5nc(C)no5)c4)CC3)nc2)c1-c1ccc(C(C)C)cc1` [Example 12, 4′-Isopropyl-6-methoxy-biphenyl-2-carboxylic acid [2-(4-(3-(3-methyl-[1,2,4]oxadiazol-5-yl)-benzyl)-piperazin-1-yl)-pyridin-5-yl]-amide] belongs 136 to 138 °C.
For the compound `CC(C)c1ccc(-c2c(C(=O)Nc3ccc(N4CCN(CC(N)=O)CC4)nc3)cccc2C(C)C)cc1` [Example 4, 4′,6-Diisopropyl-biphenyl-2-carboxylic acid [2-(4-carbamoylmethyl-piperazin-1-yl)-pyridin-5-yl]-amide], the melting point came out at 169 °C.
The same measure, in the same setting: next, `Cc1cccc(C(=O)Nc2ccc(N3CCN(Cc4cccc(C#N)c4)CC3)nc2)c1-c1ccc(C(F)(F)F)cc1` [Example 20, 6-Methyl-4′-trifluoromethyl-biphenyl-2-carboxylic acid [2-(4-(3-cyano-benzyl)-piperazin-1-yl)-pyridin-5-yl]-amide]: 164 to 166 °C; `COc1cccc(C(=O)Nc2ccc(N3CCN(Cc4ccc[nH]4)CC3)nc2)c1-c1ccc(C(C)C)cc1` [Example 7, 4′-Isopropyl-6-methoxy-biphenyl-2-carboxylic acid [2-(4-(1H-pyrrol-2-ylmethyl)piperazin-1-yl)-pyridin-5-yl]-amide]: 197 to 199 °C.
The compound `Cc1cccc(C(=O)Nc2ccc(N3CCN(Cc4ccc[nH]4)CC3)nc2)c1-c1ccc(C(C)C)cc1` [Example 5, 4′-Isopropyl-6-methyl-biphenyl-2-carboxylic acid [2-(4-(1H-pyrrol-2-ylmethyl)piperazin-1-yl)-pyridin-5-yl]-amide] gave a melting point of 130 °C.
As for `CC(C)c1ccc(-c2c(C(=O)Nc3ccc(N4CCN(C(C)C)CC4)nc3)cccc2C(C)C)cc1` [Example 26, 4′,6-Diisopropyl-biphenyl-2-carboxylic acid-[2-(4-(isopropyl)-piperazin-1-yl)-pyridin-5-yl]-amide], the melting point came to 136 °C.
Still for that read-out and setting: to `Cc1cccc(C(=O)Nc2ccc(N3CCN(Cc4cccc(C#N)c4)CC3)nc2)c1-c1ccc(C(C)C)cc1` [Example 19, 4′-Isopropyl-6-methyl-biphenyl-2-carboxylic acid [2-(4-(3-cyano-benzyl)-piperazin-1-yl)-pyridin-5-yl]-amide] belongs 154 to 156 °C; to `Cc1cccc(C(=O)Nc2ccc(N3CCN(CC(N)=O)CC3)nc2)c1-c1ccc(C(F)(F)F)cc1` [Example 2, 6-Methyl-4′-trifluoromethyl-biphenyl-2-carboxylic acid [2-(4-carbamoylmethyl-piperazin-1-yl)-pyridin-5-yl]-amide], 180 to 181 °C.
`Cc1noc(-c2cccc(CN3CCN(c4ccc(NC(=O)c5cccc(C)c5-c5ccc(C(C)C)cc5)cn4)CC3)c2)n1` [Example 10, 4′-Isopropyl-6-methyl-biphenyl-2-carboxylic acid [2-(4-(3-(3-methyl-[1,2,4]oxadiazol-5-yl)-benzyl)-piperazin-1-yl)-pyridin-5-yl]-amide] returned a melting point of 150 to 152 °C.
Regarding `N#Cc1cccc(CN2CCN(c3ccc(NC(=O)c4ccccc4-c4ccc(C(F)(F)F)cc4)cn3)CC2)c1` [Example 17, 4′-Trifluoromethyl-biphenyl-2-carboxylic acid [2-(4-(3-cyano-benzyl)-piperazin-1-yl)-pyridin-5-yl]-amide], the melting point amounted to 168 °C.
Compound `Cc1cccc(C(=O)Nc2ccc(N3CCN(CC(N)=O)CC3)nc2)c1-c1ccc(C(C)C)cc1` [Example 1, 4′-Isopropyl-6-methyl-biphenyl-2-carboxylic acid [2-(4-carbamoylmethyl-piperazin-1-yl)-pyridin-5-yl]-amide] yielded a melting point of 200 to 202 °C.
